Laboratory results: patent publication US20030099613A1, “Viral replicons and viruses dependent on inducing agents” (priority 1999, published 2003)

Test system: dox-dependent SWS virus
Test: Sensitivity of HIV-rtTA (SWS) replication to antiretroviral drugs in SupT1 cells
Assay type: cell-based, HIV-1
Details: infected SupT1 cells maintained in the presence of dox
Description: FIG. 4. Replication of HIV-rtTA can be turned on and turned off. These experiments were performed with the SWS virus, but similar results have been obtained with the other HIV-rtTA variants. The SWS virus was used (2200 ng CA-p24) to infect 6×10^6 SupT1 cells at day 0. […] In panel B, the effect of delayed addition of dox (1000 ng/ml) was analyzed at day 3 after infection. In panel C, the infected cells were grown in 1000 ng/ml dox for 3 days, at which point the cells were washed and incubated in the absence or presence of dox. In panel D, infected cells were maintained in the presence of dox and the effect of the Protease-inhibitor Saquinavir (200 nM) and the RT-inhibitor AZT ([…]) was tested.
As an additional safety test, the sensitivity of the HIV-rtTA virus to antiretroviral drugs that are in current clinical use was analyzed. Because the basic set of viral genes in HIV-rtTA was not altered, including the genes encoding Protease (Pro) and Reverse Transcriptase (RT), these viruses are expected to remain fully sensitive to well-known drugs that target these essential enzymes.

Row | Structure (SMILES) | inhibition of SWS virus replication (AZT 1 μg) | inhibition of SWS virus replication (Saquinavir 200 nM)
1 | Cc1cn([C@H]2C[C@H](N=[N+]=[N-])[C@@H](CO)O2)c(=O)[nH]c1=O [AZT, 3′-azido, 3′-deoxythymidine] | inhibited efficiently | –
2 | CC(C)(C)NC(=O)[C@@H]1C[C@@H]2CCCC[C@@H]2CN1C[C@@H](O)[C@H](Cc1ccccc1)NC(=O)[C@H](CC(N)=O)NC(=O)c1ccc2ccccc2n1 [Saquinavir] | – | inhibited efficiently
